Target: full length MPS1 (Homo sapiens (Human), UniProt P33981)
Experiment: Measurement of inhibition of MPS1 kinase (Caliper EZ reader, fluorescent labelled peptide H236)
Format: biochemical
Conditions: full length MPS1 12.5 nM or 3 nM, peptide H236 5 μM, ATP 10 μM, 60 min at room temperature

full length MPS1, sequence (P33981 whole entry): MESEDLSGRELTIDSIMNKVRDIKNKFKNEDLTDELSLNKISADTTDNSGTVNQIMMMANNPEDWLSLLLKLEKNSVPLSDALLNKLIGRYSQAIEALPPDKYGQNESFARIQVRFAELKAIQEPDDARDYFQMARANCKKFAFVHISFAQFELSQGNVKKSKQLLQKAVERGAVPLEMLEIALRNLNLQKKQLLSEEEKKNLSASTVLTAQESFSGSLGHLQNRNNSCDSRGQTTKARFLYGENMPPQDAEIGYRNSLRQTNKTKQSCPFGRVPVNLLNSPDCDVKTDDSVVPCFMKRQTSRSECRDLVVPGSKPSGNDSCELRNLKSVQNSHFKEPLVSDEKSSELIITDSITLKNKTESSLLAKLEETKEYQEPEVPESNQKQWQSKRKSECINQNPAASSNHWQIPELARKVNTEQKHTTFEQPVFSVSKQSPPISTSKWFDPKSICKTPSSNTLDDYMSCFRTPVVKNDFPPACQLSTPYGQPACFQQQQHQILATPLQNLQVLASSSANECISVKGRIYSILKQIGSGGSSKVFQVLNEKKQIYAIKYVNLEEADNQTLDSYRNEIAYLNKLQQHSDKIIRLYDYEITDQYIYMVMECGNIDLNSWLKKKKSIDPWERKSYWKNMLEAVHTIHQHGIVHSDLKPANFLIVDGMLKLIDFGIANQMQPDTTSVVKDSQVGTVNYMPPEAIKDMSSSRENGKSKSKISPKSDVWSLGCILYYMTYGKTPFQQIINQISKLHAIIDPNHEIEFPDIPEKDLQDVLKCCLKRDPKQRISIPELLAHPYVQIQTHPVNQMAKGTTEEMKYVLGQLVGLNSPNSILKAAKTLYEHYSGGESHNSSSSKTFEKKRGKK

Row | IC50 | IC50 (unit printed as (M)) | SMILES
1 | 3e-09 M | – | COc1cc(-c2cnc3n2CCNC3)ccc1Nc1cc2cc(-c3cnn(CC(C)(C)O)c3)ccc2cn1 [Example 111, 1-(4-(3-((2-Methoxy-4-(5,6,7,8-tetrahydroimidazo[1,2-a]pyrazin-3-yl)phenyl)amino)-isoquinolin-6-yl)-1H-pyrazol-1-yl)-2-methylpropan-2-ol]
2 | 2e-09 M | – | COc1cc(-c2nnc3n2CCNC3)ccc1Nc1cc2cc(-c3cnn(CC(C)(C)O)c3)ccc2cn1 [Example 112, 1-(4-(3-(2-Methoxy-4-(5,6,7,8-tetrahydro-[1,2,4]triazolo[4,3-a]pyrazin-3-yl)phenylamino)-isoquinolin-6-yl)-1H-pyrazol-1-yl)-2-methylpropan-2-ol]
3 | 4e-09 M | – | COc1cc(-c2cnc(C)n2C)ccc1Nc1cc2cc(-c3cnn(C4CCNCC4)c3)ccc2cn1 [Example 113, N-(4-(1,2-dimethyl-1H-imidazol-5-yl)-2-methoxyphenyl)-6-(1-(piperidin-4-yl)-1H-pyrazol-4-yl)isoquinolin-3-amine]
4 | – | 1.6e-08 M | COc1cc(-c2cnc(C)n2C)ccc1Nc1ncc2ccc(-c3cnn(C)c3)nc2n1 [Example 115, N-(4-(1,2-dimethyl-1H-imidazol-5-yl)-2-methoxyphenyl)-7-(1-methyl-1H-pyrazol-4-yl)pyrido[2,3-d]pyrimidin-2-amine]

Reference: patent publication US9334286B2, “Pharmacologically active compounds” (Cancer Research Technology Limited, priority 2012, dated 2016)
